These results are taken from patent US9492428B2, “Compounds, compositions, pharmaceutical compositions, and methods of use” (University of Louisville Research Foundation, Inc., priority 2011, dated 2016).

What is called GI50 is the concentration at which growth is held to half of that of the control.

The subject of experiment [1] is DU145 cells. Kind of experiment: MTT assay (cytotoxicity / cell proliferation) in DU145. It is filed as cell-based, human. As to the method:
FIG. 4. Bioassay of compound I-1, compound I-2, and compound I-3. SPA14-3-2 is pure compound I-2. SPA14-3-3 is pure compound I-3. SPA14-3-4 is pure compound I-1. MTT assays using compound I-1, compound I-2, and compound I-3 against DU145 and RWPE-1 cells lines.
FIG. 8. Cell proliferation assay. (A) DU145 or PC3 prostate cancer were plated at a density of 1,500 cells per well in 96-well plates and incubated 18 hours at 37° C. to allow adherence. They were untreated or treated by addition of different concentrations of compound I-1 (which were added directly to the medium) or vehicle (DMSO), and proliferation was measured using a 3-(4,5-dimethylthiazol-2-yl)-2,5-diphenyltetrazolium bromide MTT assay after 3 days of treatment. Points, mean of triplicate normalized samples to vehicle sample; bars, SE. (B) GI50 after 3 days of treatment. (C) Prostate cancer cells (DU145 or PC3) or a non-malignant epithelial cells (RWPE-1) were plated at a density of 1,000 cells per well in 96-well plates and incubated 18 hours at 37° C. to allow adherence. They were untreated or treated by addition of different concentrations of compound I-1 (added directly to the medium) or vehicle (DMSO), and proliferation was by MTT assay after 5 days of treatment. Points, mean of triplicate normalized samples to vehicle sample; bars, SE.
Isolation, NMR, and X-ray crystallographic analyses. Leaves, stems, and few fruits of Physalis angulate L (Solanaceae) were collected in Rio Domingusa. Kuith/Barranquita, Amazonas Department, Northeastern Peru, and identified by the team led by Walter Lewis (collection voucher 18597, Ext. 1159). Dried and grounded material (46 g) was extracted with ethanol (1 L, 95%) for 7 days. The evaporated crude extract (6.26 g) was denoted SPA. An aliquot (1.5 g) of SPA was partitioned between dichloromethane (40 mL) and water (40 mL), affording two fractions: organic (SPA1, 500 mg) and aqueous (SPA2, 600 mg). All MTT assays were performed as described in Bates et al. “G-Rich Oligonucleotides for Cancer Treatment” Chapter 21 of Methods in Molecular Biology, Gene Therapy of Cancer, Wolfgang Walther and Ulrike S. Stein (eds.), Vol. 542, 2009, Humana Press. […] SPA14-3 (30 mg) was treated on an HPLC using a reverse phase C18 column eluted in gradient mode of methanol and water (from 80% methanol to 100% methanol) and detected at 254 nm, yielding SPA14-3-1 (0 mg), SPA14-3-2 (1.2 mg of pure compound I-2), SPA14-3-3 (4.1 mg of pure compound I-3), and SPA14-3-4 (18 mg of pure compound I-1).
General Experimental Procedure. Compound I-1 was isolated as described in Example Set 1, above. For samples of compound I-1 used in Example Set 2, HPLC and NMR indicated a purity of at least 95%. All experiments described in Example Set 2 were repeated at least two or three times. […]

In experiment [2] the test system is DU145 cells. Description: Immunoblotting of apoptotic markers (cleaved caspase-3, PARP-1) in DU145. It is filed as cell-based, human. As to the method:
FIG. 13. Assays to detect apoptosis in DU145 cells. Prostate cancer cells were left untreated (−) or treated with 10 μM compound I-1 or with vehicle (DMSO) for the time indicated in the figure. (A) After treatment, cells were harvest by trypsinization, washed with PBS, and then incubated with FITC-conjugated Annexin V and propidium iodide. Flow cytometric analysis was performed. The histogram for each sample was split into four quadrants to indicate: viable cells (lower left quadrant), apoptotic cells (lower right quadrant), necrotic cells (upper left quadrant), and necrotic/late apoptotic cells (upper right quadrant). (B) After treatment, cells were lysed and total lysates were analyzed for cellular apoptotic markers by immunoblotting using anti-[…] or antibodies specific to the activated form of Caspase-3 (cleaved Caspase-3). Anti-GAPDH-1 antibody was used as loading control. (C) Some cells were harvested by trypsinization, washed with PBS, and total DNA was extracted then analyzed on a 1.8% agarose gel. M indicates DNA size marker (base pairs).
Cell Culture and Treatment. All cells were obtained from ATCC and were grown in a humidified incubator at 37° C. with 5% CO2. DU145 (hormone-refractory prostate cancer) cells were grown in DMEM and PC3 (hormone-refractory prostate cancer) were grown in F-12K medium supplemented with 10% fetal bovine serum (FBS; Life Technologies), 62.5 μg/mL penicillin and 100 μg/mL streptomycin (Hyclone Laboratories, Logan, Utah). Cells (1×10^6) in fresh complete culture medium were plated on 10 cm diameter tissue dishes for 18 h. Cells for biochemical analyses cells were lysed in lysis buffer (150 mM NaCl, 2 mM EDTA, 50 mM Tris-HCl, 0.25% deoxycholic acid, 1% octylphenoxypolyethoxyethanol (IGEPAL CA-630), pH 7.5) containing protease and phosphatase inhibitor cocktails (Calbiochem, Billerica, Mass.) for 10 min at 4° C. and then cleared by centrifugation at 16,000 g for 10 min at 4° C. All protein concentrations were determined using the bicinchoninic acid (BCA) protein assay (Pierce, Rockford, Ill.).
Immunoblotting. Samples were resolved by 4-20% precast linear gradient SDS-Tris polyacrylamide gel electrophoresis (Bio-rad Bio-Rad Laboratories, Hercules, Calif.) and then electrotransferred onto polyvinylidine fluoride membranes (Millipore, Bedford, Mass.) in Tris-glycine buffer containing 20% methanol. […] Antibody-reactive proteins were detected using a chemiluminescence substrate (SuperSignal; Pierce, Rockford, Ill.) according to the manufacturer's instructions. […]
Next, to further confirm that compound I-1 induces apoptosis in prostate cancer cells, we evaluated key apoptotic molecular markers. […]
A general note: Immunoblotting shows a protein as a band on a membrane.

In brackets after ≈: the same amount, converted by molar mass.

For the compound `C[C@@H]1CC[C@H]2C3C(O[C@]4([C@]5(O)CC6(C)C(=O)OC5C[C@@]6(C)O)CC[C@@]31O4)[C@H]1O[C@]13CC=CC(=O)[C@]23C` (stereo partly drawn) [I-1], in experiment [1] (Homo sapiens, DU-145, MTT assay, FIG. 4, read-out: GI50 against DU145), the 50% growth inhibitory concentration (GI50) was roughly 1.5 µg/mL (≈ 3 µM). Further, in experiment [1] (after three days of treatment), the “concentration of maximum antiproliferative activity” value came to 10 µM. In experiment [2] (10 μM, 48 h and 72 h), the “activated caspase-3” value was “detected” and the “cleavage of PARP-1 protein (additional band at 89 kDa)” value is listed as “detected”. Moreover, in experiment [2] (time periods shorter than 48 h), the Caspase-3 activation entry is recorded as “could not be detected” and the PARP-1 cleavage result is “could not be detected”.
